{
  "source": "patent US20250313572A1",
  "about": "“MACROCYCLIC MCL-1 INHIBITORS AND METHODS OF USE” (AbbVie Inc., priority 2017, published 2025)",
  "key": {"[1]": {"molecular_target": "GST-MCL-1 (Homo sapiens, UniProt Q07820)", "sequence (Q07820 whole entry)": "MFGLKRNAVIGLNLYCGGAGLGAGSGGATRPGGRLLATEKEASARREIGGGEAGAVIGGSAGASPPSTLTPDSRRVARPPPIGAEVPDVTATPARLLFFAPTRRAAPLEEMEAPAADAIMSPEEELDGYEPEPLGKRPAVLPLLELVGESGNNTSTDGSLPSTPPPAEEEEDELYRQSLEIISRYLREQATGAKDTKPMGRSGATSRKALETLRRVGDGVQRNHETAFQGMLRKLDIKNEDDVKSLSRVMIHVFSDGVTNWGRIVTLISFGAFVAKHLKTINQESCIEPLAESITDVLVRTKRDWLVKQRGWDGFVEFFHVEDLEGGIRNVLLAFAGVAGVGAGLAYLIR", "experiment": "TR-FRET MCL-1 binding assay (competition with probe F-Bak)", "outline": "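Displacement of F-Bak from GST-MCL-1 is detected by time-resolved FRET with a Tb-labelled anti-GST antibody, with excitation 340/35 nm and emission 520/525 and 495/510 nm, after 2 hours at room temperature. Compounds were titrated in 11 three-fold steps starting at 25 μM final, in buffer alone or in 10% HS.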"}, "[2]": {"tested_on": "AMO-1 xenograft", "experiment": "AMO-1 xenograft model of multiple myeloma", "format": "in vivo, female SCID/bg mice", "conditions": "25 mg/kg/day, IP/QDx1", "description": "Tumors were size matched at approximately 200 mm^3. […] Tumor volume was estimated two to three times weekly. […] Seven or eight mice were housed per cage. Food and water were available ad libitum.\nTumor growth inhibition is calculated by 100*(1−Tv/Cv) where Tv and Cv are the mean tumor volumes of the treated and control groups, respectively."}, "[3]": {"tested_on": "NCI-H929 human multiple myeloma tumor cell line", "experiment": "NCI-H929 cell viability assay (CellTiter-Glo, 24 hours)", "format": "cell-based"}, "[4]": {"tested_on": "AMO-1 human multiple myeloma tumor cell line", "experiment": "AMO-1 cell viability assay (CellTiter-Glo, 24 hours)", "format": "cell-based"}, "[5]": {"conditions": "MCL-1 Binding Ki (nM, 10% HS), in the presence of 10% HS (human serum)"}, "[6]": {"conditions": "without HS, read-out: MCL-1 Binding Ki"}, "[7]": {"conditions": "Homo sapiens, NCI-H929, 24 h, read-out: H929 Viability IC50 (μM, 10% FBS), 10% FBS, 24 hours of compound treatment"}, "[8]": {"conditions": "Homo sapiens, AMO1, 24 h, read-out: AMO-1 Viability IC50 (μM, 10% FBS), 10% FBS, 24 hours of compound treatment"}},
  "note": "Where two headings read alike, the source gives them in different places. Marks after values point to notes of the source that are not given here.",
  "data": [
    {"smiles": "COCCOCCOCCN1CCN(C[C@@H]2COc3ccc(OCc4ccnc(-c5ccccc5OC)n4)c(c3)C[C@H](C(=O)O)Oc3ncnc4sc(-c5ccc(F)cc5)c(c34)-c3ccc(c(Cl)c3C)O2)CC1", "note": "(atropisomer, axis not shown) [Example 5, (7R,16R,21S)-19-chloro-1-(4-fluorophenyl)-16-[(4-{2-[2-(2-methoxyethoxy)ethoxy]ethyl}piperazin-1-yl)methyl]-10-{[2-(2-methoxyphenyl)pyrimidin-4-yl]methoxy}-20-methyl-7,8,15,16-tetrahydro-18,21-etheno-13,9-(metheno)-6,14,17-trioxa-2-thia-3,5-diazacyclononadeca[1,2,3-cd]indene-7-carboxylic Acid]", "values": [
      {"measurement": "Ki", "setting": "[1]; [5]", "result": 0.057, "unit": "nM"},
      {"measurement": "Ki", "setting": "[1]; [6]", "result": 0.009, "unit": "nM"},
      {"measurement": "TGD (%)", "setting": "[2]", "result": "17* %"},
      {"measurement": "TGImax (%)", "setting": "[2]", "result": "55* %"},
      {"measurement": "IC50", "setting": "[3]; [7]", "result": 0.008, "unit": "µM"},
      {"measurement": "IC50", "setting": "[4]; [8]", "result": 4, "unit": "nM"}
    ]},
    {"smiles": "COCCOCCOCCOCCOCCOCC1(C)CC=C(c2nccc(COc3ccc4cc3C[C@H](C(=O)O)Oc3ncnc5sc(-c6ccc(F)cc6)c(c35)-c3c(C)c(Cl)c(c(Cl)c3C)O[C@H](CN3CCN(C)CC3)CO4)n2)CC1", "note": "(single isomer, unassigned) [Example 84, (7R,16R)-19,23-dichloro-1-(4-fluorophenyl)-10-({2-[(4R*)-4-(2,5,8,11,14,17-hexaoxaoctadecan-1-yl)-4-methylcyclohex-1-en-1-yl]pyrimidin-4-yl}methoxy)-20,22-dimethyl-16-[(4-methylpiperazin-1-yl)methyl]-7,8,15,16-tetrahydro-18,21-etheno-13,9-(metheno)-6,14,17-trioxa-2-thia-3,5-diazacyclononadeca[1,2,3-cd]indene-7-carboxylic Acid]", "values": [
      {"measurement": "Ki", "setting": "[1]; [5]", "result": 0.232, "unit": "nM"},
      {"measurement": "Ki", "setting": "[1]; [6]", "result": 0.033, "unit": "nM"},
      {"measurement": "TGD (%)", "setting": "[2]", "result": "33* %"},
      {"measurement": "TGImax (%)", "setting": "[2]", "result": "71* %"},
      {"measurement": "IC50", "setting": "[3]; [7]", "result": 0.000528, "unit": "µM"},
      {"measurement": "IC50", "setting": "[4]; [8]", "result": 0.175, "unit": "nM"}
    ]},
    {"smiles": "COCCOCCOCC1(F)CC=C(c2nccc(COc3ccc4cc3C[C@H](C(=O)O)Oc3ncnc5sc(-c6ccc(F)cc6)c(c35)-c3c(C)c(Cl)c(c(Cl)c3C)O[C@H](CN3CCN(C)CC3)CO4)n2)CC1", "note": "(single isomer, unassigned) [Example 87, (7R,16R)-19,23-dichloro-10-({2-[(4R*)-4-fluoro-4-{[2-(2-methoxyethoxy)ethoxy]methyl}cyclohex-1-en-1-yl]pyrimidin-4-yl}methoxy)-1-(4-fluorophenyl)-20,22-dimethyl-16-[(4-methylpiperazin-1-yl)methyl]-7,8,15,16-tetrahydro-18,21-etheno-13,9-(metheno)-6,14,17-trioxa-2-thia-3,5-diazacyclononadeca[1,2,3-cd]indene-7-carboxylic Acid]", "values": [
      {"measurement": "Ki", "setting": "[1]; [5]", "result": 0.068, "unit": "nM"},
      {"measurement": "Ki", "setting": "[1]; [6]", "result": 0.004, "unit": "nM"},
      {"measurement": "TGD (%)", "setting": "[2]", "result": "158* %"},
      {"measurement": "TGImax (%)", "setting": "[2]", "result": "99* %"},
      {"measurement": "IC50", "setting": "[3]; read-out: H929 Viability IC50 (μM, 10% FBS), 10% FBS, 24 hours of compound treatment", "result": 0.000253, "unit": "µM"},
      {"measurement": "IC50", "setting": "[4]; read-out: AMO-1 Viability IC50 (μM, 10% FBS), 10% FBS, 24 hours of compound treatment", "result": 0.0959, "unit": "nM"}
    ]}
  ]
}
